Measurements reported in patent US20100310467A1, “COMPOSITION AND METHOD FOR GENERATING A METABOLIC PROFILE USING 13C-MR DETECTION” (priority 2007, published 2010).
One block for each molecule: values may come before it.

Experiments:
[1] = Liquid state polarisation and T1 by liquid state 13C-NMR; type: physicochemical; conditions: for T1: at 9.4 T; for Liquid state polarisation: liquid state 13C-NMR at 400 MHz, after 90 minutes DNP and dissolution
Procedure: In a similar way, the level of polarisation for dissolved hyperpolarised ^13C-fumarate may be determined by liquid state NMR measurements. Again the signal intensity of the dissolved hyperpolarised ^13C-fumarate is compared with the signal intensity of the dissolved ^13C-fumarate before polarisation. The level of polarisation is then calculated from the ratio of the signal intensities of ^13C-fumarate before and after polarisation.
After 90 minutes of dynamic nuclear polarisation, the obtained frozen polarised composition was dissolved in 6 ml of a solution prepared from 5.87 ml water (100 mg/l EDTA added), 133 μl NaOH aq (2 M) and 30 mg NaCl. The pH of the final solution containing the dissolved composition was 7.2. The ^13C1,4-fumarate concentration in said final solution was 50 mM.
Liquid state polarisation was determined by liquid state ^13C-NMR at 400 MHz to be 21%. T1 at 9.4 T was 34 s.

[2] = Solid state polarisation by solid state 13C-NMR after DNP; type: physicochemical; conditions: DNP at 1.2 K, 3.35 T, microwave 93.90 GHz, trityl radical and Gd-chelate
Description: The level of polarisation may for instance be determined by solid state ^13C-NMR measurements in solid hyperpolarised ^13C-fumarate, e.g. solid hyperpolarised ^13C-fumarate obtained by dynamic nuclear polarisation (DNP) of ^13C-fumarate. The solid state ^13C-NMR measurement preferably consists of a simple pulse-acquire NMR sequence using a low flip angle. The signal intensity of the hyperpolarised ^13C-fumarate in the NMR spectrum is compared with signal intensity of ^13C-fumarate in a NMR spectrum acquired before the polarisation process. The level of polarisation is then calculated from the ratio of the signal intensities of before and after polarisation.
The probe is inserted into the probe-retaining container, submerged in the liquid helium and irradiated with microwaves, preferably at a frequency of about 94 GHz at 200 mW. The level of polarisation may be monitored by for instance acquiring solid state ^13C-NMR signals of the probe during microwave irradiation. Generally, a saturation curve is obtained in a graph showing NMR signal vs. time. […] A solid state ^13C-NMR measurement suitably consists of a simple pulse-acquire NMR sequence using a low flip angle. The signal intensity of the dynamic nuclear polarised nuclei, i.e. ^13C nuclei in ^13C-fumaric acid or ^13C-fumarate is compared with the signal intensity of the ^13C nuclei in ^13C-fumaric acid or ^13C-fumarate before DNP. The polarisation is then calculated from the ratio of the signal intensities before and after DNP.
To a micro test tube was added ^13C1,4-fumaric acid (33.5 mg, 0.284 mmol), TRIS (42 mg, 0.347 mmol) and 22.5 μl water. The test tube was gently heated and sonicated to dissolve all compounds. […] Polarisation was followed by solid state ^13C-NMR and the solid state polarisation was determined to be 25%.

mouse hind leg muscle = experiment: In vivo 13C-MR spectroscopy of mouse leg before and after ischemic injury; set-up: species or system C57Bl/6 mouse
Procedure: 175 μl of an imaging medium comprising hyperpolarised sodium ^13C1,4-fumarate which was prepared as described in Example 2 was injected into a C57Bl/6 mouse over a time period of 6 s. The sodium ^13C1,4-fumarate concentration in said imaging medium was about 50 mM. A surface coil (tuned for carbon) was positioned around the leg muscle and signals of ^13C-fumarate and ^13C-malate were detected by ^13C-MR spectroscopy which was carried out in a 2.4 T Bruker spectrometer to generate a metabolic profile. A total of 60 ^13C-spectra were acquired with a repetition time of 2 s and 15 degree RF pulses. Ischemia in a mouse leg muscle was made by strangulation of the hind leg muscle. Following an ischemic period of 30 min the mouse leg muscle was re-perfused for one hour. In this Example, the ^13C-malate signal is approximately 0.5% of the ^13C-fumarate signal in the mouse muscle before ischemia. Following ischemia and 5 min. reperfusion the ^13C-malate signal is approximately 1.5% of the ^13C-fumarate signal. After 60 min. reperfusion the ^13C-malate signal is approximately 4% of the ^13C-fumarate signal. With an identical protocol signals of ^13C-pyruvate and ^13C-lactate were detected by ^13C-MR spectroscopy (polarisation of pyruvate was carried out as described in Example 2 of WO-A-2006/011809).

[3] = tested on: subcutaneous mouse lymphoma (EL-4); experiment: 13C-dynamic imaging of subcutaneous mouse lymphoma with and without etoposide treatment; type: in vivo, C57Bl/6 mouse; conditions: EL-4 tumours, 22-26 hours after etoposide injection, n=5, signal normalized to maximum fumarate signal
Procedure: EL-4 cells were injected into a C57Bl/6 mouse to generate a subcutaneous mouse lymphoma. On day 9 after implantation, the EL4 tumour was imaged. 175 μl of an imaging medium comprising hyperpolarised sodium ^13C1-fumarate-d2 which was prepared as described in Example 3 was injected into the mouse over a time period of 6 s. The sodium ^13C1-fumarate-d2 concentration in said imaging medium was about 20 mM. A surface coil (tuned for carbon) was positioned over the subcutaneous tumour and signals of ^13C-fumarate and ^13C-malate were detected by ^13C-MR spectroscopy which was carried out using a 2.4 T Bruker spectrometer to generate a metabolic profile of the tumour and the surrounding healthy tissue. A slice selective FID was acquired with a 10° RF flip angle, TR=3 s, and 60 repetitions. […] Signal amplitudes for both malate and fumarate were normalized to the maximum fumarate signal and were measured as a function of time. […] Fumarase may be an ideal candidate enzyme for this because it requires no cofactors for its activity (so its activity is solely determined by the availability of the enzyme and the substrate) and the rate of conversion is very fast in vivo (about ˜2-4 fold faster than lactate dehydrogenase) making it a sensitive test.

cells = experiment: Further in vitro experiments, malate production after etoposide treatment; type: cell-based
[4] = tested on: Dicarboxylate Transporter (DCT); experiment: In vitro hyperpolarized malate production with transporter inhibition; type: cell-based
[5] = tested on: MDA-MB-231 cells (human epithelial breast cell adenocarcinoma); experiment: In vitro 13C-MR detection, conversion of 13C-fumarate to 13C-malate; type: cell-based
Procedure: (§1) 50 μl (2.7 mM in sodium ^13C1-fumarate-d2) of an imaging medium which was prepared according to Example 3 was mixed into 8*10^6 MDA-MB-231 cells (human epithelial breast cell adenocarcinoma). Signals of ^13C-fumarate and ^13C-malate were detected by acquiring a set of ^13C-MR spectra every 5 s with a 15 degree RF pulse. The result is shown in FIG. 1: ^13Cmalate was building up over time. The conversion rate was 70 μmol/min*g soluble protein with a peak ^13C-malate signal after approximately 30 s. With an identical protocol conversion rates were calculated for three other human cancer cell lines, these are compared in Table 1.
(§2) Table. […] Formation of ^13C1,4-malate-d2 from ^13C1-fumarate is calculated for the 4 investigated cell lines (n≧3). […] This cell line is highly invasive and hormone-insensitive and represents a late stage cancer. Formation rate of malate varies greatly between the two prostate cancer lines, with a 7 times higher conversion rate in the more aggressive PC-3 line, compared to DU-145.

DU-145 cells = experiment: as above; type: cell-based, human; conditions: n≧3
Procedure: as §1, §2

H-EMC-SS cells = experiment: as above; type: cell-based, human; conditions: n≧3
Procedure: as §1, §2

PC-3 cells = experiment: as above; type: cell-based, human
Procedure: as §1, §2

T1 [1]: 34 s | Liquid state polarisation [1]: 21%
Molecule: O=[13C](O)/C=C/[13C](=O)O [^13C1,4-fumarate]

solid state polarisation [2]: 30%
Molecule: O=[13C](O)/C=C/[13C](=O)O [^13C1,4-fumaric acid]

solid state polarisation [2]: 41%
Molecule: [2H]/C(C(=O)O)=C(/[2H])[13C](=O)O [^13C1-fumaric acid-d2]

Molecule: CC(=O)[13C](=O)O [^13C-pyruvate, reference compound]
13C-lactate signal relative to pyruvate signal (mouse hind leg muscle; 60 min reperfusion): back to levels comparable to the healthy muscle | 13C-lactate signal relative to pyruvate signal (mouse hind leg muscle; directly after ischemia): increases to above the pyruvate signal | 13C-lactate signal as % of the 13C-pyruvate signal (mouse hind leg muscle; healthy muscle): approximately 40%

Molecule: COc1cc([C@@H]2c3cc4c(cc3[C@@H](O[C@@H]3O[C@@H]5CO[C@@H](C)O[C@H]5[C@H](O)[C@H]3O)[C@H]3COC(=O)[C@H]23)OCO4)cc(OC)c1O [etoposide]
malate signal compared to untreated tumours [3]: 65% | malate production (cells; after 14 hrs of treatment with etoposide): increase in malate production | malate production (cells; after 16 hrs of treatment with etoposide): further increase

Molecule: [Cl-].[Li+] [lithium chloride]
change in hyperpolarized malate production ([4]; provisional experiments with lithium chloride): only a small reduction

T1 [1]: 34 s | Liquid state polarisation [1]: 29%
Molecule: O=[13C]([O-])/C=C/[13C](=O)[O-].[Na+].[Na+] [sodium ^13C1,4-fumarate]
13C-malate signal as % of the 13C-fumarate signal (mouse hind leg muscle; 30 min ischemia, 5 min reperfusion): approximately 1.5% | 13C-malate signal as % of the 13C-fumarate signal (mouse hind leg muscle; 30 min ischemia, 60 min reperfusion): approximately 4% | 13C-malate signal as % of the 13C-fumarate signal (mouse hind leg muscle; mouse muscle before ischemia): approximately 0.5%

T1 [1]: 44 s | Liquid state polarisation [1]: 40%
Molecule: [2H]/C(C(=O)[O-])=C(/[2H])[13C](=O)[O-].[Na+].[Na+] [sodium ^13C1-fumarate-d2]
conversion rate (fumarate to malate) ([5]; 8*10^6 MDA-MB-231 cells, 50 μl imaging medium (2.7 mM), FIG. 1): 70 μmol/min*g soluble protein | Malate formation rate ([5]; MDA-MB-231 cells, n≧3): 77 ± 19 μmol min^−1 g^−1 protein | time of peak 13C-malate signal ([5]; MDA-MB-231 cells, spectra every 5 s): approximately 30 s | Malate formation rate (DU-145 cells): 6 ± 2 μmol min^−1 g^−1 protein | Malate formation rate (H-EMC-SS cells): 40 ± 14 μmol min^−1 g^−1 protein | Malate formation rate (PC-3 cells; PC-3 cells, n≧3): 42 ± 0.5 μmol min^−1 g^−1 protein | conversion rate in PC-3 compared to DU-145 (PC-3 cells; prostate cancer lines PC-3 vs DU-145): 7 times

Molecule: O=C(O)CCC(=O)O [succinate]
change in malate production ([4]; excess (50 mM) of unlabelled, non-hyperpolarized succinate added): only a small reduction

solid state polarisation [2]: 25%
Molecule: TRIS-^13C1,4-fumarate
